Results published in patent US7157430B2, “(Substituted)acyl dipeptidyl inhibitors of the ICE/CED-3 family of cysteine proteases” (Idun Pharmaceuticals, Inc., priority 1998, dated 2007).
Where two headings read alike, the source gives them in different places. Where a SMILES comes first, the peptide text is derived from it. The star is where a group is joined. Hydrocinnamoyl = O=C(CCc1ccccc1)*

Legend:
Format in all cases: biochemical
mICE [1] = target: T1, mICE (Mus musculus, UniProt P29452); assay: Fluorescence enzyme assay, IC50 determination, ICE
T1 sequence (P29452 123-296 limits assumed): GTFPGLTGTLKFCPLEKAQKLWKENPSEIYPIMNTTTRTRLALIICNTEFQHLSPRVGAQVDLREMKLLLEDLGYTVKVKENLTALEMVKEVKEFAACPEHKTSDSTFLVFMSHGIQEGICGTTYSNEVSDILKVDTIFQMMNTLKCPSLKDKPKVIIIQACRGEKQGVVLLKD
T1 sequence (P29452 315-402 limits assumed): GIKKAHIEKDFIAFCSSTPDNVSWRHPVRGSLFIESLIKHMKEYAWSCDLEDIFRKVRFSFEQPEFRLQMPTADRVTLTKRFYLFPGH
Method: (§1) Fluorescence enzyme assays detecting the activity of the compounds of Formula 1 utilizing the recombinant ICE and CPP32 enzymes are performed essentially according to Thornberry et al. (Nature, 356:768:774 (1992)) and Nicholson et al. (Nature, 376:37–43 (1995)) respectively, (herein incorporated by reference) in 96 well microtiter plates. The substrate is Acetyl-Tyr-Val-Ala-Asp-amino-4-methylcoumarin (AMC) for the ICE assay and Acetyl-Asp-Glu-Val-Asp-amino-4-methylcoumarin for the CPP32, Mch2, Mch3 and Mch5 assays. Enzyme reactions are run in ICE buffer (25 mM HEPES, 1 mM EDTA, 0.1% CHAPS, 10% sucrose, pH 7.5) containing 2 mM DTT at room temperature in duplicate.
(§2) The enzyme and the compound of Formula I to be assayed are allowed to preincubate in the microtitre plate wells for 30 minutes at room temperature prior to the addition of substrate to initiate the reaction. Fluorescent AMC product formation is monitored for one hour at room temperature by measuring the fluorescence emission at 460 nm using an excitation wavelength of 360 nm. The fluorescence change in duplicate (control) wells are averaged and the mean values are plotted as a function of inhibitor concentration to determine the inhibitor concentration producing 50% inhibition (IC50). The results of this assay are set forth below in Table 1 and in Table 3 (for Table 3, see Examples 11 through 52).
(§3) The reference compound for this assay was Cbz-ValAlaAsp-H and the values are denoted in Table 1 as “Reference”.

CPP32 [2] = target: T2, CPP32 (Homo sapiens, UniProt P42574); assay: Fluorescence enzyme assay, IC50 determination, CPP32
T2 sequence (P42574 29-175 limits assumed): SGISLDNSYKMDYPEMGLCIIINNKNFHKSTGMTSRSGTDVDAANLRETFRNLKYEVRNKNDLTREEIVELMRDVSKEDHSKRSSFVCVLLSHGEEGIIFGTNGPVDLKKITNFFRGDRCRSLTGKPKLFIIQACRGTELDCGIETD
T2 sequence (P42574 176-277 limits assumed): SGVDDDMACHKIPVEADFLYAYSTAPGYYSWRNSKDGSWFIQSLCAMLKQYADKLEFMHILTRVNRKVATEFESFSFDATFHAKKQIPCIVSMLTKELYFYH
Method: as §1, §2, §3

MCH-3 = target: T3, MCH-3 (Homo sapiens, UniProt P55210); assay: Fluorescence enzyme assay, IC50 determination, Mch3
T3 sequence (P55210 24-198 limits assumed): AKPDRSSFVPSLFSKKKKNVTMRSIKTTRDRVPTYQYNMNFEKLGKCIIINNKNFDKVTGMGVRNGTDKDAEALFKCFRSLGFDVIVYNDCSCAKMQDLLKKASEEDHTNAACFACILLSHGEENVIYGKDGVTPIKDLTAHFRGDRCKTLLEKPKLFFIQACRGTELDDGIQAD
T3 sequence (P55210 207-303 limits assumed): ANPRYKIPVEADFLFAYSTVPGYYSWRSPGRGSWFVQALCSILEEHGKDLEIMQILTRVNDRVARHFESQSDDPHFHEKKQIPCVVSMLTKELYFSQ
Method: as §1, §2, §3

MCH-5 [3] = target: T4, MCH-5 (Homo sapiens, UniProt Q14790); assay: Fluorescence enzyme assay, IC50 determination, Mch5
Method: as §1, §2, §3

MCH-2 [4] = target: T5, MCH-2 (Homo sapiens, UniProt P55212); assay: Fluorescence enzyme assay, IC50 determination, Mch2
T5 sequence (P55212 24-179 limits assumed): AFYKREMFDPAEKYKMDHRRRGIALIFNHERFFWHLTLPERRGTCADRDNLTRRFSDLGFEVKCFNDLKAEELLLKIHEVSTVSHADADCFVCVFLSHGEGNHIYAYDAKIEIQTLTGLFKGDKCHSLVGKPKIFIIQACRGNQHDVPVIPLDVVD
T5 sequence (P55212 194-293 limits assumed): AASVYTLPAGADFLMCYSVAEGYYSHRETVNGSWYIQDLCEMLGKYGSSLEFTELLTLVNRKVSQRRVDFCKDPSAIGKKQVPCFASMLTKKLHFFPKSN
Method: as §1, §2, §3

mICE [5] = target: T1, mICE; assay: Dissociation constant Ki and irreversible rate constant k3 for irreversible inhibitors, ICE; settings: continuous assay 60 min, reaction initiated by adding enzyme
CPP32 [6] = target: T2, CPP32; assay: Dissociation constant Ki and irreversible rate constant k3 for irreversible inhibitors, CPP32; settings: continuous assay 60 min, reaction initiated by adding enzyme
MCH-2 [7] = target: T5, MCH-2; assay: Dissociation constant Ki and irreversible rate constant k3 for irreversible inhibitors, Mch2; settings: continuous assay 60 min, reaction initiated by adding enzyme
MCH-5 [8] = target: T4, MCH-5; assay: Dissociation constant Ki and irreversible rate constant k3 for irreversible inhibitors, Mch5; settings: continuous assay 60 min, reaction initiated by adding enzyme
[9] = Table 3, method of Preparation 3A, read-out: mICE I50
[10] = Table 3, method of Preparation 3A, read-out: CPP32 I50
[11] = Table 3, method of Preparation 3A, read-out: MCH3 I50
[12] = Table 3, method of Preparation 3A, read-out: MCH5 I50
[13] = Table 3, method of Preparation 3A, read-out: MCH2 I50
[14] = recombinant enzyme, Ac-YVAD-AMC substrate, 30 min preincubation, room temperature, read-out: mICE IC50
[15] = recombinant enzyme, Ac-DEVD-AMC substrate, 30 min preincubation, room temperature, read-out: CPP32 IC50
[16] = Ac-DEVD-AMC substrate, 30 min preincubation, room temperature, read-out: MCH-2 IC50
[17] = Ac-DEVD-AMC substrate, 30 min preincubation, room temperature, read-out: MCH-3 IC50
[18] = Ac-DEVD-AMC substrate, 30 min preincubation, room temperature, read-out: MCH-5 IC50

T4 sequence (Q14790 217-374 limits assumed, species assumed): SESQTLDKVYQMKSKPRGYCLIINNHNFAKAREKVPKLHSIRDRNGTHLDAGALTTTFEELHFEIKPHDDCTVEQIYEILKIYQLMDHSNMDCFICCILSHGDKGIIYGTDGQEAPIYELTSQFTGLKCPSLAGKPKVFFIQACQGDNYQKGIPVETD
T4 sequence (Q14790 385-479 limits assumed, species assumed): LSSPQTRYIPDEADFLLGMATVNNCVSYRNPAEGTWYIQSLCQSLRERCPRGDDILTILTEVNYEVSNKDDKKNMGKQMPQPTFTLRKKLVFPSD

Compound	IC50 (mICE [1]; [9])	IC50 (CPP32 [2]; [10])	IC50 (MCH-3; [11])	IC50 (MCH-5 [3]; [12])	IC50 (MCH-2 [4]; [13])	other results
CC(C)C[C@H](NC(=O)CCc1ccccc1)C(=O)N[C@H](C=O)CC(=O)O [Example 35] (Hydrocinnamoyl-Leu-Asp-aldehyde)	> 10000 nM	9740 nM	> 10000 nM	> 10000 nM	–	–
CC(C)C[C@H](NC(=O)COc1ccc(Cc2ccccc2)cc1)C(=O)N[C@H](C=O)CC(=O)O [Example 43]	1800 nM	346 nM	4410 nM	4720 nM	18900 nM	–
CC(C)C[C@H](NC(=O)CCOc1ccccc1)C(=O)N[C@H](C=O)CC(=O)O [Example 37]	9420 nM	419 nM	6040 nM	> 10000 nM	> 50000 nM	–
CC(C)C[C@H](NC(=O)CSc1cccc2ccccc12)C(=O)N[C@H](C=O)CC(=O)O [Example 16]	2750 nM	195 nM	1740 nM	7420 nM	1430 nM	–
CC(C)C[C@H](NC(=O)C(C)Oc1ccccc1)C(=O)N[C@H](C=O)CC(=O)O (stereo partly drawn) [Example 36]	20400 nM	1770 nM	8270 nM	> 10000 nM	> 10000 nM	–
CC(C)C[C@H](NC(=O)COc1ccc(-c2ccccc2)cc1)C(=O)N[C@H](C=O)CC(=O)O [Example 41]	1900 nM	763 nM	12000 nM	7530 nM	20500 nM	–
CC(C)C[C@H](NC(=O)COc1ccc(OCc2ccccc2)cc1)C(=O)N[C@H](C=O)CC(=O)O [Example 46]	2510 nM	570 nM	7250 nM	8600 nM	33400 nM	–
CC(C)C[C@H](NC(=O)CCC(=O)c1ccc2ccccc2c1)C(=O)N[C@H](C=O)CC(=O)O [Example 21]	543 nM	1420 nM	7430 nM	5230 nM	10300 nM	–
O=C[C@H](CC(=O)O)NC(=O)[C@@H]1CSC(c2ccccc2)N1C(=O)COc1cccc2ccccc12 (stereo partly drawn) [Example 179, (3S,2′RS,4′R)-3-[3′-((1-Naphthyloxy)Acetyl)-2′-Phenylthiazolidine-4′-Carbonyl]Amino-4-Oxobutanoic Acid]	–	–	–	–	–	IC50 (mICE [1]; [14]): 204 nM; IC50 (CPP32 [2]; [15]): 14000 nM; IC50 (MCH-2 [4]; [16]): 3530 nM; IC50 (MCH-3; [17]): > 50000 nM; IC50 (MCH-5 [3]; [18]): 1550 nM
CC(C)C[C@H](NC(=O)[C@H](CCC(=O)O)Oc1cccc2ccccc12)C(=O)N[C@H](C=O)CC(=O)O [Example 3, (3S,2′S)-3-[N-((2′-(1-Naphthyloxy)-4′-Carboxy)Butyryl)Leucinyl]Amino-4-Oxobutanoic Acid]	–	–	–	–	–	IC50 (CPP32 [2]; [15]): 21 nM; IC50 (MCH-2 [4]; [16]): 15 nM; IC50 (MCH-3; [17]): 587 nM; IC50 (MCH-5 [3]; [18]): 12 nM
CC(C)C[C@H](NC(=O)COc1cccc2c1CCCC2)C(=O)N[C@H](C=O)CC(=O)O [Example 51]	1810 nM	324 nM	2740 nM	1750 nM	11800 nM	–
CC(C)C[C@H](NC(=O)COc1ccc(Oc2ccccc2)cc1)C(=O)N[C@H](C=O)CC(=O)O [Example 44]	2210 nM	545 nM	6820 nM	9280 nM	21200 nM	–
CC(C)C[C@H](NC(=O)COc1cccc2ccccc12)C(=O)N[C@H](C=O)CC(=O)O [Example 1, (3S)-3-[N-((1-Naphthyloxy)Acetyl)Leucinyl]Amino-4-Oxobutanoic Acid]	–	–	–	–	–	IC50 (mICE [1]; [14]): 535 nM; IC50 (CPP32 [2]; [15]): 141 nM; IC50 (MCH-2 [4]; [16]): 995 nM; IC50 (MCH-3; [17]): 1560 nM; IC50 (MCH-5 [3]; [18]): 680 nM
Cc1ccc2ccccc2c1OCC(=O)N[C@@H](CC(C)C)C(=O)N[C@H](C=O)CC(=O)O [Example 26]	843 nM	375 nM	4160 nM	4140 nM	32400 nM	–
CC(C)C[C@H](NC(=O)COc1ccc2ccccc2c1)C(=O)N[C@H](C=O)CC(=O)O [Example 13]	2570 nM	944 nM	8870 nM	> 10000 nM	18600 nM	–
CC(C)C[C@H](NC(=O)COc1c(Cl)cc(Cl)c2ccccc12)C(=O)N[C@H](C=O)CC(=O)O [Example 29]	141 nM	357 nM	3610 nM	3040 nM	21400 nM	–
CC(C)C[C@H](NC(=O)C(C)Oc1cccc2cc(Br)ccc12)C(=O)N[C@H](C=O)CC(=O)O (stereo partly drawn) [Example 15]	–	4810 nM	32400 nM	29100 nM	13800 nM	–
CC(C)C[C@H](NC(=O)[C@@H](CCC(=O)O)Oc1cccc2ccccc12)C(=O)N[C@H](C=O)CC(=O)O [Example 4, (3S,2′R)-3-[N-((2′-(1-Naphthyloxy)-4′-Carboxy)Butyryl)Leucinyl]Amino-4-Oxobutanoic Acid]	–	–	–	–	–	IC50 (CPP32 [2]; [15]): 3.8 nM; IC50 (MCH-2 [4]; [16]): 3.5 nM; IC50 (MCH-3; [17]): 130 nM; IC50 (MCH-5 [3]; [18]): 31 nM
CC(C)C[C@H](NC(=O)C(C)Nc1cccc2ccccc12)C(=O)N[C@H](C=O)CC(=O)O (mixture of isomers) [Example 9, (3S,2′RS)-3-[N-(2′-(1-Naphthylamino)Propionyl)Leucinyl]Amino-4-Oxobutanoic Acid]	–	–	–	–	–	IC50 (CPP32 [2]; [15]): 512 nM; IC50 (MCH-2 [4]; [16]): 310 nM; IC50 (MCH-3; [17]): 7240 nM; IC50 (MCH-5 [3]; [18]): 17 nM
CC(C)C[C@H](NC(=O)CCOc1cccc2ccccc12)C(=O)N[C@H](C=O)CC(=O)O [Example 22]	–	59 nM	1370 nM	9810 nM	305 nM	–
CC(C)[C@H](NC(=O)COc1cccc2ccccc12)C(=O)N[C@@H](CC(=O)O)C(=O)COP(C)(=O)c1cccc2ccccc12 (stereo partly drawn) [Example 110]	–	–	–	–	–	Ki (mICE [5]): 59 nM; mICE k3/Ki (mICE [5]): 64,900 M^−1s^−1; CPP32 k3/Ki (CPP32 [6]): 272,000 M^−1s^−1; Ki (CPP32 [6]): 35 nM; Ki (MCH-2 [7]): 15 nM; MCH-2 k3/Ki (MCH-2 [7]): 150,000 M^−1s^−1; Ki (MCH-5 [8]): 43 nM; MCH-5 k3/Ki (MCH-5 [8]): 18,800 M^−1s^−1
CC(C)C[C@H](NC(=O)C(C)Oc1cccc2ccccc12)C(=O)N[C@H](C=O)CC(=O)O (stereo partly drawn) [Example 14]	–	376 nM	1320 nM	2430 nM	1280 nM	–
CCCCCCP(=O)(OCC(=O)[C@H](CC(=O)O)NC(=O)[C@@H](NC(=O)COc1cccc2ccccc12)C(C)C)c1ccccc1 (stereo partly drawn) [Example 106]	–	–	–	–	–	Ki (mICE [5]): 167 nM; mICE k3/Ki (mICE [5]): 42,500 M^−1s^−1; CPP32 k3/Ki (CPP32 [6]): 155,000 M^−1s^−1; Ki (CPP32 [6]): 48 nM; Ki (MCH-2 [7]): 80 nM; MCH-2 k3/Ki (MCH-2 [7]): 52,900 M^−1s^−1; Ki (MCH-5 [8]): 134 nM; MCH-5 k3/Ki (MCH-5 [8]): 10,500 M^−1s^−1
